Results as given in the COVID Moonshot data (paper PMC7615835).
Several values for one entry are separate records, joined by “and”; a condition that tells them apart may be missing. Equal entries are not always repeated.

These compounds were tested against SARS-CoV-2 Main Protease (SARS-CoV-2) (UniProt P0DTD1).

| Structure (SMILES) | IC50 |
| --- | --- |
| Cc1cccc(CN2CCN(c3nc4ccccc4nc3C)CC2)c1 | > 99.5 µM |
| Cn1ncc2cc(N(C(=O)c3cnc[nH]3)C(C(=O)NCCc3cccc(F)c3)c3cccnc3)ccc21 (configuration not stated) | > 99 µM |
| CNC(=O)CN1C[C@@]2(CC(=O)N(c3cncc4ccccc34)C2=O)c2cc(Cl)ccc2C1=O (stereo in doubt) | 0.123 µM |
| C[n+]1ccn(CCCc2cccc(Cl)c2)c1C#N | > 99.5 µM |
| CC(=O)N1CCN(CC(=O)Nc2cncc3ccccc23)CC1 | > 99.5 µM and 51.7 µM |
| Nc1cccc2c(=O)[nH]n(-c3cc(Cl)cc(CC(=O)Nc4cncc5ccccc45)c3)c(=O)c12 | 5.92 µM |
| Cc1ccc(CC(=O)Nc2cncc3ccccc23)cc1 | 58.4 µM |
| Cc1ccn2ncc(C(=O)Nc3ccc4[nH]c(C)cc(=O)c4c3)c2n1 | > 99.5 µM |
| O=C(Cc1cc(Cl)cc(Nc2ccc(I)cc2F)c1)Nc1cncc2ccccc12 | 2.24 µM |
| O=C(Cc1cc(Cl)cc(Nc2ccc3c(c2)OCCO3)c1)Nc1cncc2ccccc12 | 2.12 µM |
| CC(C)(C)c1ccc(N(C(=O)c2cc(=O)[nH]c(=O)[nH]2)C(C(=O)NCCc2cccc(F)c2)c2cccnc2)cc1 (configuration not stated) | > 99.5 µM |
| COCc1cc(Cl)cc(CN2CCN(C(=O)CCl)CC2)c1 | 4.77 µM |
| N#CC1(CS(=O)(=O)N2Cc3ccc(Cl)cc3[C@@H](C(=O)Nc3cncc4ccccc34)C2)CCS(=O)(=O)CC1 (stereo in doubt) | 15.3 µM |
| O=C(Cc1cc(Cl)cc(Nc2ncnc(Cl)c2Cl)c1)Nc1cncc2ccccc12 | 2.06 µM |
| COC(=O)/C=C/C(=O)N(C(=O)[C@@H]1CCOc2ccc(Cl)cc21)c1cncc2ccccc12 (stereo in doubt) | 0.5 µM |
| CC1NCCn2c(-c3nc(-c4cnc5cnccn45)no3)ccc21 (configuration not stated) | > 99.5 µM |
| Cc1ccncc1NC(=O)Cc1cc(Cl)cc(OC2COC2)c1 | 16 µM |
| CN(C)c1ccc(C(Cc2ccsc2)C(=O)Nc2nnc3ccccn23)cc1 (configuration not stated) | > 99.5 µM |
| CSc1ncc(C#N)c(Nc2cc(Cl)cc(CC(=O)Nc3cncc4ccccc34)c2)n1 | 1.84 µM |
| COC(C)(C)CS(=O)(=O)N1Cc2ccc(Cl)cc2C(C(=O)Nc2cncc3ccccc23)C1 (configuration not stated) | 0.2 µM |
| CC(C)(C)c1ccc(N(C(=O)c2cccc(C#N)c2)C(C(=O)NCCc2cccc(F)c2)c2cccnc2)cc1 (configuration not stated) | > 99.5 µM |
| CC(C)(C)c1ccc(N(C(=O)c2cocn2)C(C(=O)NCCc2cccc(F)c2)c2cnc(N3CCOCC3)nc2)cc1 (configuration not stated) | > 99.5 µM |
| Cc1cc(N)ncc1NC(=O)Cc1cccc(Cl)c1 | > 99.5 µM |
| O=C(NCCc1cccc(F)c1)C(c1cccnc1)N(C(=O)c1ccco1)C1CCCC(c2ccc(F)c(F)c2)C1 (configuration not stated) | > 99.5 µM |
| Cc1ccncc1NC(=O)Cc1cc(Cl)cc(NCC(C)(C)C#N)c1 | 36.5 µM |

| Structure (SMILES) | IC50 |
| --- | --- |
| CNC(=O)CN1CC(C(=O)Nc2cncc3ccc(S(C)(=O)=O)cc23)c2cc(Cl)ccc2C1=O (configuration not stated) | 0.33 µM |
| CC(C)(O)c1ccc(N(C(=O)c2cocn2)C(C(=O)NCCc2cccc(F)c2)c2cccnc2)cc1 (configuration not stated) | 26.5 µM |
| CCNC(=O)c1ccc(N(C(=O)c2cocn2)C(C(=O)NCCc2cccc(F)c2)c2cccnc2)cc1 (configuration not stated) | > 99.5 µM |
| CC(C)(C)c1ccc(-c2nnc(Sc3cnc([N+](=O)[O-])s3)o2)cc1 | 7.29 µM and 2.38 µM |
| CC(C)(C)c1ccc(N(C(=O)c2cocn2)C(C(=O)N2CCC(c3cccc(F)c3)CC2)c2cccnc2)cc1 (configuration not stated) | 9.46 µM |
| Cc1ccc(N(Cc2cscn2)C(=O)Cc2cncc3ccccc23)nc1 | > 99.5 µM |
| CS(=O)(=O)c1ccc2c(NC(=O)C3CN(CC(=O)NCC(F)(F)F)C(=O)c4ccc(Cl)cc43)cncc2c1 (configuration not stated) | 0.287 µM |
| O=C(Cc1cccc(Cl)c1F)Nc1cncc2ccccc12 | 23.6 µM |
| O=C1NC(c2ccc(Cl)c(Cl)c2)C(=O)N1c1cncc2ccccc12 (configuration not stated) | 8.46 µM |
| O=C(Cc1cccc(Cl)c1)Nc1[nH]nc2cccc(F)c12 | > 99.5 µM |
| Cn1cc(C(=O)N(c2ccc(C(C)(C)C)cc2)C(C(=O)NCCc2cccc(F)c2)c2cccnc2)n(C)c1=O (configuration not stated) | > 99.5 µM |
| Cc1cc(=O)oc2cc(Nc3cc(Cl)cc(CC(=O)Nc4cncc5ccccc45)c3)ccc12 | 2.12 µM |
| Cc1ccncc1NC(=O)CC(C)C(C)C (configuration not stated) | > 99 µM |
| CCc1nc(-c2nnc[nH]2)sc1C(=O)N(c1ccc(C(C)(C)C)cc1)C(C(=O)NCCc1cccc(F)c1)c1cccnc1 (configuration not stated) | > 99.5 µM |
| CCOc1c(Cl)cccc1CC(=O)Nc1cncc2ccccc12 | 6.96 µM |
| O=C(NCc1nnc2c(=O)[nH]ccn12)c1ccnc2ccnn12 | > 99.5 µM |
| O=C(Cc1cc(Cl)cc(Nc2cccc(Br)c2)c1)Nc1cncc2ccccc12 | 2.07 µM |
| CC(=O)N1CCN(CC(=O)Nc2cnccc2-c2ccccc2)CC1 | > 99.5 µM |
| Cc1nc(Nc2cc(Cl)cc(CC(=O)Nc3cncc4ccccc34)c2)ccc1Br | 2.07 µM |
| CCNC(=O)CN1CC(C(=O)Nc2cncc3ccccc23)c2cc(Cl)ccc2C1=O (configuration not stated) | 0.0628 µM and 0.105 µM and 0.143 µM |
| CC(C)(C)c1ccc(N(C(=O)c2ccco2)C(C(=O)NCCc2cccc(F)c2)c2cnc3ccccn23)cc1 (configuration not stated) | 37.5 µM |
| O=C(Nc1cncc2cc(Cl)ccc12)C12CC(C1)Oc1ccc(Cl)cc12 | > 99.5 µM |
| Cc1ccncc1NC(=O)Cc1cc(Cl)cc(OCc2nn(C(=O)OC(C)(C)C)c3ccccc23)c1 | > 99.5 µM |
| O=C(Cc1cc(Cl)cc(Nc2cc(Cl)c(F)cc2F)c1)Nc1cncc2ccccc12 | 1.74 µM |
| O=S(=O)(Nc1cc2c(cc1OCc1ccccc1)OCO2)c1ccccc1 | > 99.5 µM |

| Structure (SMILES) | IC50 |
| --- | --- |
| O=C(Cc1cc(Cl)cc(Nc2ccc([N+](=O)[O-])cc2Cl)c1)Nc1cncc2ccccc12 | 2.18 µM |
| Cn1cccc(C(C(=O)NCCc2cccc(F)c2)N(C(=O)c2cocn2)c2ccc(C(C)(C)C)cc2)c1=O (configuration not stated) | > 99.5 µM |
| O=C(Nc1ccccc1)[C@@H](c1ccccc1)N1Cc2ccccc2C1=O (stereo in doubt) | > 99.5 µM |
| CC(C)(C)c1ccc(N(C(=O)c2ccon2)C(C(=O)NCCc2cccc(F)c2)c2cccnc2)cc1 (configuration not stated) | 4.26 µM |
| N#CC1(CS(=O)(=O)N2Cc3ccc(Cl)cc3C(C(=O)Nc3cncc4ccccc34)C2)CCCC1 (configuration not stated) | 0.079 µM and 0.0884 µM |
| O=C1C(=O)N(Cc2ccccc2)c2ccc([N+](=O)[O-])cc21 | > 99.5 µM |
| O=C(NCCc1cccc(F)c1)C(c1cccnc1)N(C(=O)c1cocn1)C1CCc2ccccc21 (configuration not stated) | > 99.5 µM |
| N#CC1(CS(=O)(=O)N2Cc3ccc(Cl)cc3C(C(=O)Nc3cncc4cccc(Cl)c34)C2)CC1 (configuration not stated) | 0.259 µM |
| O=C(CC1(C(=O)Nc2cncc3ccccc23)CCOc2ccc(Cl)cc21)N1CCN(CC(F)(F)CO)CC1 (configuration not stated) | 7.28 µM |
| C=CC(=O)N[C@H](Cc1ccccc1)C(=O)NCCN(C)C (stereo in doubt) | > 99.5 µM |
| Cc1nc(CN2Cc3ccc(Cl)cc3C(C(=O)Nc3cncc4ccc(F)cc34)C2)cs1 (configuration not stated) | 1.12 µM |
| CCS(=O)(=O)c1cc(Cl)cc(CNS(=O)(=O)c2cccs2)c1 | > 99.5 µM |
| O=C(Cc1cc(Cl)cc(Nc2c(F)cccc2Br)c1)Nc1cncc2ccccc12 | 3.39 µM |
| Cn1c(NC(=O)Cc2csc3nccn23)nc2ccc(F)cc21 | > 99.5 µM |
| CS(=O)(=O)c1ccc2c(N3CCC4(CN(S(=O)(=O)CC5(C#N)CC5)Cc5ccc(Cl)cc54)C3=O)cncc2c1 (configuration not stated) | 0.103 µM |
| Cc1ccncc1N1CCC(c2cccc(Cl)c2)C1=O (configuration not stated) | 44.7 µM |
| O=C(NCCO)c1ccc(N(C(=O)c2cocn2)C(C(=O)NCCc2cccc(F)c2)c2cccnc2)cc1 (configuration not stated) | > 99.5 µM |
| CC(C)(C#N)CS(=O)(=O)N1Cc2ccc(Cl)cc2C2(CCN(c3cncc4ccccc34)C2=O)C1 (configuration not stated) | 0.448 µM |
| Cc1ccncc1NC(=O)CN1C(=O)COc2ccc(Cl)cc21 | 59.9 µM |
| COc1ccccc1NC1CN(C(=O)c2cc(=O)[nH]c3ccccc23)C1 | > 99.5 µM |
| Cn1c(C(=O)N(c2ccc(C(C)(C)C)cc2)C(C(=O)NCCc2cccc(F)c2)c2cccnc2)c[nH]c1=O (configuration not stated) | > 99.5 µM |
| C[C@H](N)C(=O)N[C@@H](CCC(N)=O)C(=O)O (stereo in doubt) | > 99 µM |
| O=C(Nc1ccc2c(=O)cc[nH]c2c1)c1ccc2ccncc2c1 | > 99.5 µM |
| Cc1c(C(=O)N2CCC(C3CCNC3)CC2)cccc1-c1ccccn1 (configuration not stated) | > 99.5 µM |
| Cc1ccncc1NC(=O)Cc1cc(C#N)cc(OC2CC(=O)N2)c1 (configuration not stated) | 11.6 µM |

| Structure (SMILES) | IC50 |
| --- | --- |
| O=C(CCl)Nc1cccc(N2CCCC2=O)c1 | 72 µM and 68.7 µM |
| C=CC(=O)NCC(=O)N(CCN1CCOCC1)Cc1sccc1Br | > 99.5 µM |
| O=C(Cn1nnc2ccccc21)N(Cc1ccccn1)c1cnc(-c2ccccc2)nc1 | > 99.5 µM |
| CC(C(=O)Nc1cncnc1)c1ccccc1 (configuration not stated) | > 99.5 µM |
| Cc1[nH]c2ccccc2c1C(=O)CSc1nc2cc(Cl)cnc2[nH]1 | > 99.5 µM |
| COC(=O)CNC(=O)C(c1cccnc1)N(C(=O)c1cocn1)c1ccc(C(C)(C)C)cc1 (configuration not stated) | 10.8 µM |
| CNC(=O)CN1Cc2ccc(Cl)cc2C(C(=O)Nc2cncc3cc(NS(C)(=O)=O)ccc23)C1 (configuration not stated) | 0.0728 µM |
| CC(C)(C)c1ccc(N(C(=O)c2ncc[nH]2)C(C(=O)NCCc2cccc(F)c2)c2cccnc2)cc1 (configuration not stated) | 5.29 µM |
| CC(C)(C)c1ccc(N(C(=O)c2ccc(Cl)o2)C(C(=O)NCCc2cccc(F)c2)c2cccnc2)cc1 (configuration not stated) | 0.315 µM |
| O=C(Cc1cc(Cl)cc(NCc2cccc(F)c2Cl)c1)Nc1cncc2ccccc12 | 2.22 µM |
| C=CC(=O)N(c1ccc(C(C)(C)C)cc1)C(C(=O)NCCc1cccc(F)c1)c1cncc(C)c1 (configuration not stated) | 11.6 µM |
| O=C(Nc1cncc2ccccc12)C12CCC(O1)c1ccc(Cl)cc12 (configuration not stated) | 11.1 µM |
| Cn1ncc(S(=O)(=O)N2Cc3ccc(Cl)cc3C(C(=O)Nc3cncc4ccccc34)C2)n1 (configuration not stated) | 0.268 µM |
| O=C(CCl)N1CCCN(S(=O)(=O)c2cccc(F)c2)CC1 | 17.2 µM |
| CNC(=O)CN1CC(C)(C(=O)Nc2cncc3cc(Cl)ccc23)c2cc(Cl)ccc2S1(=O)=O (configuration not stated) | 0.393 µM |
| O=C(NCCc1cccc(F)c1)C(c1cccnc1)N(C(=O)c1cnc[nH]1)c1cccc(C2COC2)c1 (configuration not stated) | > 99 µM |
| N#Cc1cccc(NC(=O)[C@@H]2CN(C(=O)CCl)CCN2S(=O)(=O)c2ccsc2)c1 (stereo in doubt) | 0.416 µM |
| CC(C(=O)NS(=O)(=O)c1cnn(-c2cccc(C(F)(F)F)c2)c1)n1cnc(C#N)n1 (configuration not stated) | > 99.5 µM |
| O=C(NCCc1cccc(F)c1)C(c1cccnc1)N(Cc1ccccc1C1CCC1)C(=O)c1ccco1 (configuration not stated) | 1.93 µM |
| Cc1cc(C(F)(F)F)nc2c1c(N)nn2C(=O)C1CCOc2ccc(Cl)cc21 (configuration not stated) | > 99.5 µM |
| Cc1ccccc1C(C)NC(C)C(=O)Nc1ccc2[nH]c(=O)[nH]c2c1 (configuration not stated) | > 99.5 µM |
| CC(C)(C)c1ccc(N(C(=O)c2nc(=O)[nH][nH]2)C(C(=O)NCCc2cccc(F)c2)c2cccnc2)cc1 (configuration not stated) | > 99.5 µM |
